How the values were obtained:
[1] = tested on: hematopoietic system (AZT toxicity); assay: Oral TAU vs hematopoietic damage by i.p. AZT (Example 9); format: in vivo, female Balb/C mice
Method: AZT (100 mg/kg i.p.) was given three times daily at 9 a.m., 4 p.m., and at 10 p.m. to fifty-six female Balb/C mice weighing approximately 19 grams each. Three times each day, at 9 a.m., 4 p.m., and 10 p.m., animals were treated with either water (control) or TAU at doses of 230, 460, or 920 mg/kg/treatment by oral intubation. Treatment volume was 0.2 ml for the control and TAU 460 groups, 0.1 ml for the TAU 230 group, and 0.4 ml for the TAU 920 group. One additional group of fourteen mice was not given AZT or any treatments (basal).
All of the animals were weighed on the day the experiment began, on day six and on day 13. After weighing the mice on days six and thirteen blood (0.2–0.3 ml) was collected from seven mice in each group by retro-orbital bleeding into EDTA for subsequent differential blood cell counting, including reticulocytes. Mice were then sacrificed by cervical dislocation; their right femurs removed and the contents expelled for cell counting; and their spleens removed and weighed.

[2] = tested on: hematopoietic system (5-FU toxicity); assay: TAU dose-response on hematopoietic recovery after 5-FU (Example 2); format: in vivo, female Balb/C mice; design: Marrow: unit not given here; settings: for HCT (11d): eleven days after 5-FU
Method: Seventy female Balb/C mice weighing approximately twenty grams were each given an i.p. injection of 5-FU (150 mg/kg) at 1:00 p.m. on the initial day of the study. These animals were then divided into five different treatment groups: control (water), and oral TAU at doses of 100, 250, 500, and 1,000 mg/kg/treatment. The test compounds were then given at 3:00, 5:00, 7:30, and 10:00 p.m. on the day of 5-FU administration; at 9:00 a.m., 11:00 a.m., and 1:00, 3:00, 6:00, and 10:00 p.m. the following day; and a final administration at 11:00 a.m. two days following the single 5-FU injection. Each treatment was given orally in a volume of 0.2 ml water (by gavage), except the highest dose of TAU which was administered in 0.4 ml of water.
On days seven and eleven following 5-FU administration, blood (0.2–0.3 ml) was collected from seven mice in each group by retro-orbital bleeding into EDTA for subsequent differential blood cell counting. Mice were sacrificed by cervical dislocation; their right femurs removed and the contents expelled for cell counting; and their spleens removed and weighed.

in vivo = assay: in vivo; design: species or system mice; settings: mouse, ip, 300 mg/kg
Method: Plasma uridine levels were determined in mice at various times (15 minutes, 30 minutes, 1 hour, and 2 hours) after administration of the acyl derivatives of uridine utilized in Example 3 for attenuation of toxicity caused by 5-FU. Groups of mice (n=3 per compound per time point) received intraperitoneal injections of uridine (300 mg/kg), triacetyluridine (TAU; 455 mg/kg/treatment), benzoyluridine (BU; 428 mg/kg/treatment), ethoxycarbonyluridine (ECU; 389 mg/kg/treatment), octanoyluridine (OU; 455 mg/kg/treatment), and valeryluridine (VU; 403 mg/kg/treatment). The doses of the acyl derivatives of uridine are the molar equivalent of 300 mg/kg uridine. At the appropriate time points, blood samples (200 μl) were taken from mice via the retro-orbital sinus and immediately centrifuged. 75 μl of the resulting plasma was deproteinized with 2 volumes of methanol followed by centrifugation. The supernatant was lyophilized and reconstituted with 50 mM potassium phosphate buffer, pH 6.0, and analyzed for uridine content by HPLC on a reverse phase (C18) column. Uridine was separated from other plasma components in 50 mM potassium phosphate buffer, pH 6.0, with a methanol gradient (2% to 35% over 15 minutes). Uridine was detected and quantified by UV absorbance at 260 nm.

[3] = Plasma uridine after oral uridine or TAU, with or without dipyridamole (Example 12); format: in vivo, female Balb/C mice
Method: Female Balb/C mice with a body weight of 20 grams were divided into four groups of 8 animals each: [table] Dipyridamole was administered by intraperitoneal injection 30 minutes prior to uridine or TAU Uridine was administered orally by gavage as an aqueous solution in a volume of 0.4 ml. TAU was administered by gavage in an emulsion vehicle (1:1 corn oil/water with 2.5% Tween 80). Two mice from each group were bled from the suborbital plexus at each time point: 0 (Basal uridine levels before TAU or uridine administration), 0.5, 1, 2, and 4 hours after administration of TAU or uridine Plasma samples (0.1 ml) were deproteinized by addition of 0.2 ml methanol followed by centrifugation. Samples were lyophilized and then reconstituted with HPLC buffer (100 mM ammonium acetate, pH 6.5, for subsequent assay of uridine by reverse phase HPLC with UV absorbance detection (254 nm). Data points are the mean of two samples for each time point.

[4] = day 13, AZT i.p. + oral TAU 460 mg/kg/treatment
[5] = seven days after 5-FU, oral TAU 100 mg/kg/treatment
[6] = seven days after 5-FU, oral TAU 250 mg/kg/treatment
[7] = seven days after 5-FU, oral TAU 500 mg/kg/treatment
[8] = seven days after 5-FU, oral TAU 1000 mg/kg/treatment

CC(=O)OC[C@H]1O[C@@H](n2ccc(=O)[nH]c2=O)[C@H](OC(C)=O)[C@@H]1OC(C)=O [TAU, triacetyluridine]
HCT [1, 4]: 40.83 ± 0.37% | HGB [1, 4]: 14.54 ± G/dL | Lymph. [1, 4]: 6.06 ± 0.38 K/μl | Neutro. [1, 4]: 0.62 ± 0.03 K/μl | Platelets [1, 4]: 863 ± 26 K/μl | RBC [1, 4]: 8.58 ± M/μl | Retic. [1, 4]: 0.162 ± 0.014 M/μl | WBC [1, 4]: 7.0 ± K/μl | bone marrow cellularity ([1]; day six, AZT 100 mg/kg i.p. three times daily + oral TAU 230 mg/kg): 8.89±0.46 | RBC levels ([1]; day six, AZT i.p. + oral TAU 460 mg/kg/treatment): 9.15±0.07 ×10^6 per microliter | WBC counts ([1]; day six, AZT i.p. + oral TAU 920 mg/kg): 8.46±0.63 ×10^3 per microliter | Total neutrophil counts vs control ([2]; day eleven after 5-FU, TAU 250, 500, and 1,000 groups): significantly greater than control values | Spleen weight ([2]; day eleven after 5-FU, TAU 250 group): 104.2 ± 3.5 mg | Red blood cell counts ([2]; day eleven after 5-FU, TAU 500 group): 8.72±0.18 ×10^6 per microliter | Red blood cell counts ([2]; day eleven after 5-FU, TAU 1000 group): 8.63±0.16 ×10^6 per microliter | Total neutrophil counts, fold of controls ([2]; day seven after 5-FU, TAU 1,000 group): approximately three-fold | HCT (11d) ([2]; T100): 36.80 | HCT (11d) ([2]; T250): 37.47 ± .83 | HCT (11d) ([2]; T500): 41.16 ± .88 | HCT (11d) ([2]; T1000): 41.55 ± .77 | Marrow ([2]; seven days after 5-FU 150 mg/kg i.p., oral TAU 100 mg/kg/treatment): 1.77 ± .18 | HCT (7d) ([2]; seven days after 5-FU, T100): 37.77 | HCT (7d) ([2]; seven days after 5-FU, T250): 40.04 ± .38 | HCT (7d) ([2]; seven days after 5-FU, T500): 39.50 ± .61 | HCT (7d) ([2]; seven days after 5-FU, T1000): 40.84 ± .68 | Lym [2, 5]: 2.46 ± .04 K/μl | Neut [2, 5]: .014 ± .008 K/μl | PLT [2, 5]: 440 ± 46 K/μl | RBC [2, 5]: 8.20 ± .07 M/μl | WBC [2, 5]: 2.47 ± .04 K/μl | Lym [2, 6]: 2.71 ± .20 K/μl | Marrow [2, 6]: 2.91 ± .48 | Neut [2, 6]: .027 ± .012 K/μl | PLT [2, 6]: 601 ± 46 K/μl | RBC [2, 6]: 8.51 ± .06 M/μl | WBC [2, 6]: 2.76 ± .20 K/μl | Lym [2, 7]: 3.99 ± .15 K/μl | Marrow [2, 7]: 3.93 ± .39 | Neut [2, 7]: .037 ± .020 K/μl | PLT [2, 7]: 712 ± 42 K/μl | RBC [2, 7]: 8.43 ± .16 M/μl | WBC [2, 7]: 4.06 ± .14 K/μl | Lym [2, 8]: 3.44 ± .23 K/μl | Marrow [2, 8]: 4.42 ± .34 | Neut [2, 8]: .071 ± .027 K/μl | PLT [2, 8]: 715 ± 35 K/μl | RBC [2, 8]: 8.65 ± .15 M/μl | WBC [2, 8]: 3.57 ± .25 K/μl

O=c1ccn([C@@H]2O[C@H](CO)[C@@H](O)[C@H]2O)c(=O)[nH]1 [Urd, uridine]
concentration at 15 min (in vivo): 911 µM | concentration at 30 min (in vivo): 415 µM | concentration at 1 h (in vivo): 185 µM | concentration at 2 h (in vivo): 5.3 µM | concentration at 0 h ([3]; female, Balb/C, mouse, plasma, oral, 1000 mg/kg, 0 hr (basal, before TAU or uridine), DPM 25 mg/kg i.p. 30 min before where given, read-out: Plasma uridine levels): 2 µM | concentration at 0.5 h ([3]; female, Balb/C, mouse, plasma, oral, 0.5 hr after uridine 1000 mg/kg p.o. or equimolar TAU 1500 mg/kg p.o., ± DPM 25 mg/kg i.p., read-out: Plasma uridine levels): 4 µM | concentration at 1 h ([3]; female, Balb/C, mouse, plasma, oral, 1 hr after uridine 1000 mg/kg p.o. or equimolar TAU 1500 mg/kg p.o., ± DPM 25 mg/kg i.p., read-out: Plasma uridine levels): 6 µM | concentration at 2 h ([3]; female, Balb/C, mouse, plasma, oral, 2 hr after uridine 1000 mg/kg p.o. or equimolar TAU 1500 mg/kg p.o., ± DPM 25 mg/kg i.p., read-out: Plasma uridine levels): 4 µM | concentration at 4 h ([3]; female, Balb/C, mouse, plasma, oral, 4 hr after uridine 1000 mg/kg p.o. or equimolar TAU 1500 mg/kg p.o., ± DPM 25 mg/kg i.p., read-out: Plasma uridine levels): 2 µM | peak plasma uridine levels ([3]; uridine 1000 mg/kg p.o. or equimolar TAU 1500 mg/kg p.o., ± DPM 25 mg/kg i.p.): 6 µM

From patent US7166581B1, “Treatment of chemotherapeutic agent and antiviral agent toxicity with acylated pyrimidine nucleosides” (Wellstat Therapeutics Corporation, priority 1987, dated 2007)
